Active and inactive are the calls of the source. No rule for the calls is given here. Where only a bound is given, the exact number is not on record here.

The IC50 is the concentration that inhibits the measured activity by half.

This test addresses alkaline phosphatase, placental type (human). The experiment in a line: PLAP enzyme inhibition by analogs, SAR follow-up, selectivity assay for mouse IAP inhibitor project, biochemical, human PLAP isozyme, set 2 (AID 588641). The note with it: purified human placental alkaline phosphatase, enzyme activity.

`O=c1[nH]c2ccc(S(=O)(=O)NCCc3ccc4c(c3)OCO4)cc2o1`: the IC50 was > 100 µM (inactive).

Turning to `COc1ccc(CNC(=O)CCNS(=O)(=O)c2ccc3[nH]c(=O)oc3c2)cc1`, the IC50 was > 100 µM (inactive).

`O=C(CCNS(=O)(=O)c1ccc2[nH]c(=O)oc2c1)NCc1ccc(O)c(O)c1`: the IC50 was > 100 µM (inactive).

Consider `O=C(N/N=C/c1c(F)cccc1F)c1ccc(O)cc1`, for which the IC50 is > 100 µM (inactive).

Regarding `O=C(CCNS(=O)(=O)c1ccc2[nH]c(=O)oc2c1)NCCc1ccc2c(c1)OCO2`, the IC50 was > 100 µM (inactive).

With `CSc1cccc(NC(=O)C2CCCN(S(=O)(=O)c3ccc4c(c3)oc(=O)n4C)C2)c1` (configuration not stated), the IC50 was > 100 µM (inactive).

As to `N#Cc1cccc(NS(=O)(=O)c2ccc3[nH]c(=O)oc3c2)c1`, the IC50 was > 100 µM (inactive).

`O=C(CCNS(=O)(=O)c1ccc2[nH]c(=O)oc2c1)NCc1ccccc1F`: the IC50 is > 100 µM (inactive).

Turning to `O=C(NCc1ccc2c(c1)OCO2)C1CCCN(S(=O)(=O)c2ccc3[nH]c(=O)oc3c2)C1` (configuration not stated), the IC50 was > 100 µM (inactive).

Take `Cc1ccc(CNC(=O)C2CCCN(S(=O)(=O)c3ccc4[nH]c(=O)oc4c3)C2)cc1` (configuration not stated): the IC50 is > 100 µM (inactive).

With `Cc1ccc(C)c(NC(=O)CCNS(=O)(=O)c2ccc3c(c2)CCC3)c1`, the IC50 is > 100 µM (inactive).

On to `O=C(CCS(=O)(=O)Nc1ccc2[nH]c(=O)oc2c1)NCc1cccc(Cl)c1`, for which the IC50 was > 100 µM (inactive).

As to `COc1ccc(CNC(=O)CCNS(=O)(=O)c2ccc3ccccc3c2)c(OC)c1`, the IC50 is > 100 µM (inactive).

`Cc1ccccc1CNC(=O)CCCNS(=O)(=O)c1ccc2[nH]c(=O)oc2c1`: the IC50 was > 100 µM (inactive).

In the case of `O=C(CCCNS(=O)(=O)c1ccc2[nH]c(=O)oc2c1)NCc1ccc2c(c1)OCO2`, the IC50 is > 100 µM (inactive).

As for `CCc1ccc(NC(=O)CCNS(=O)(=O)c2ccc3c(c2)oc(=O)n3C)cc1`, the IC50 is > 100 µM (inactive).

On to `CN(C)c1ccc(CNC(=O)C2CCCN(S(=O)(=O)c3ccc4[nH]c(=O)oc4c3)C2)cc1` (configuration not stated), for which the IC50 is > 100 µM (inactive).

As for `Cc1ccc(C)c(NC(=O)CCNS(=O)(=O)c2ccc3ccccc3c2)c1`, the IC50 was > 100 µM (inactive).

As for `O=C(CCNS(=O)(=O)c1ccc2[nH]c(=O)oc2c1)NCc1cccc(Cl)c1`, the IC50 was > 100 µM (inactive).

For the compound `COc1ccc(CNC(=O)C2CCCN(S(=O)(=O)c3ccc4[nH]c(=O)oc4c3)C2)cc1` (configuration not stated), the IC50 was > 100 µM (inactive).

Take `O=C(NN=Cc1ccccc1F)c1ccc(O)cc1`: the IC50 was > 100 µM (inactive).

As for `COc1cccc(CNC(=O)CNS(=O)(=O)c2ccc3[nH]c(=O)oc3c2)c1`, the IC50 is > 100 µM (inactive).

Regarding `O=C(N/N=C/c1ccc(Cl)c(Cl)c1)c1cc(O)c(O)c(O)c1`, the IC50 is > 100 µM (inactive).

In the case of `COc1ccc(CNC(=O)CNS(=O)(=O)c2ccc3[nH]c(=O)oc3c2)c(OC)c1`, the IC50 was > 100 µM (inactive).

Turning to `COc1cccc(C(=O)N/N=C/c2ccccc2F)c1`, the IC50 is > 100 µM (inactive).

Regarding `Cc1ccc(C)c(NS(=O)(=O)c2ccc3[nH]c(=O)oc3c2)c1`, the IC50 is > 100 µM (inactive).

Regarding `Cc1ccc(C)c(NC(=O)C2CCCN(S(=O)(=O)c3ccc4c(c3)oc(=O)n4C)C2)c1` (configuration not stated), the IC50 was > 100 µM (inactive).

On to `O=C(N/N=C/c1ccc(F)cc1F)c1ccc(O)cc1`, for which the IC50 is > 100 µM (inactive).

On to `CCOc1ccc(CNC(=O)C2CCCN(S(=O)(=O)c3ccc4[nH]c(=O)oc4c3)C2)cc1OC` (configuration not stated), for which the IC50 is > 100 µM (inactive).

As for `O=C(NCc1ccccc1)C1CCCN(S(=O)(=O)c2ccc3[nH]c(=O)oc3c2)C1` (configuration not stated), the IC50 is > 100 µM (inactive).

Take `COc1ccc(OC)c(NC(=O)CCNS(=O)(=O)c2ccc3c(c2)oc(=O)n3C)c1`: the IC50 is > 100 µM (inactive).

For the compound `O=C(CCNS(=O)(=O)c1ccc2[nH]c(=O)oc2c1)NCc1ccccc1Cl`, the IC50 is > 100 µM (inactive).

The record behind these values is PubChem BioAssay AID588641 (Sanford-Burnham Center for Chemical Genomics, 2011).
